Assay results from patent publication US20250171404A1, “PCNA INHIBITORS AND USES THEREOF” (CITY OF HOPE, priority 2022, published 2025).
Blank lines part the entries; values can stand above or below the compound they belong to.

Assays:
Type in all cases: cell-based
[1] = Cell growth IC50, screening of AOH1160 analogs (cell line not given); conditions: read-out: IC50 values
Procedure: (§1) FIG. 29. IC50 data for select compounds. The indicated cell lines were seeded at 10^4 cells per well in a 96 well plate. After allowing to attach to the plate overnight, cells were treated with various concentrations of the indicated compounds in triplicates for 72 hrs. The cell growth was measured by an SRB assay. The cell abundances under each treatment condition relative to the baseline were averaged and graphed ±S.D. The baseline is defined as the median value of the cell abundances under the treatment by the two lowest compound concentrations. The IC50 was calculated by the Prism program.

SK-N-AS = experiment: Cell growth IC50, screening of AOH1160 analogs; conditions: Homo sapiens, read-out: IC50 values
Procedure: as §1

OVCAR8 = experiment: Cell growth IC50, screening of AOH1160 analogs; conditions: Homo sapiens, OVCAR-8; OVCAR8; read-out: IC50 values
Procedure: as §1

HTC-116 = experiment: Cell growth IC50, screening of AOH1160 analogs; conditions: HTC-116; read-out: IC50 values
Procedure: as §1

RKO = experiment: Cell growth IC50, screening of AOH1160 analogs; conditions: Homo sapiens, read-out: IC50 values
Procedure: as §1

Compound: O=C(CNC(=O)c1cccc2ccccc12)Nc1ccccc1C(=O)Nc1ccccc1 [AOH1160-2AB, N-(2-oxo-2-((2-(phenylcarbamoyl)phenyl)amino)ethyl)-1-naphthamide]
IC50 [1]: > 10 µM

IC50 (SK-N-AS): 156 nM
Compound: O=C(CNC(=O)c1cccc2ccccc12)Nc1ccccc1Oc1ccc(O)cc1 [AOH1160-4′-OH]

Compound: O=C(O)CC[C@@H](NC(=O)c1cccc2ccccc12)C(=O)Nc1ccccc1Oc1ccccc1 [AOH1160DE]
IC50 [1]: > 10 µM

Compound: NCCCC[C@@H](NC(=O)c1cccc2ccccc12)C(=O)Nc1ccccc1Oc1ccccc1 [AOH1160DK]
IC50 [1]: > 10 µM

Compound: CC(C)[C@@H](NC(=O)c1cccc2ccccc12)C(=O)Nc1ccccc1Oc1ccccc1 [AOH1160DV, (R)—N-(3-methyl-1-oxo-1-((2-phenoxyphenyl)amino)butan-2-yl)-1-naphthamide]
IC50 [1]: > 10 µM

Compound: NCCCC[C@H](NC(=O)c1cccc2ccccc12)C(=O)Nc1ccccc1Oc1ccccc1 [AOH1160LK]
IC50 [1]: > 10 µM

IC50 (OVCAR8): > 10000 nM
Compound: O=C(CNC(=O)c1cccc2ccccc12)Nc1ccccc1Nc1ccccc1 [AOH1160NH]
IC50 (HTC-116): > 10 µM
IC50 (RKO): > 10 µM

Compound: O=C(CNC(=O)c1cccc2ccccc12)Nc1ccccc1S(=O)(=O)c1ccccc1 [AOH1160SO2, N-(2-oxo-2-((2-(phenylsulfonyl)phenyl)amino)ethyl)-1-naphthamide]
IC50 [1]: > 10 µM

Compound: O=C(CCNC(=O)c1cccc2ccccc12)Nc1ccccc1Oc1ccccc1 [AOH1160e, N-(3-oxo-3-((2-phenoxyphenyl)amino)propyl)-1-naphthamide]
IC50 [1]: > 10 µM

Compound: O=C(Nc1ccccc1Oc1ccccc1)c1cccc2ccccc12 [AOH1160t]
IC50 [1]: > 10 µM

Compound: O=C(CNC(=O)c1nccc2ccccc12)Nc1ccccc1Oc1ccncc1 [AOH1167]
IC50 [1]: 42 µM

Compound: COc1cccc(Oc2ccccc2NC(=O)CNC(=O)c2ccc(-c3ccccc3)cc2)c1 [AOH1996BiNph, N-(2-((2-(3-methoxyphenoxy)phenyl)amino)-2-oxoethyl)-[1,1′-biphenyl]-4-carboxamide]
IC50 [1]: > 10 µM

Compound: COc1cccc(Oc2ccccc2NC(=O)[C@H](CCC(=O)O)NC(=O)c2cccc3ccccc23)c1 [AOH1996LE, (S)-4-(1-naphthamido)-5-((2-(3-methoxyphenoxy)phenyl)amino)-5-oxopentanoic acid]
IC50 [1]: > 10 µM

IC50 (OVCAR8): 2600 nM
Compound: O=C(CNC(=O)c1cccc2ccccc12)Nc1ccccc1Sc1cccc(C(F)(F)F)c1 [AOH1996S-3CF3, N-(2-oxo-2-((2-((3-(trifluoromethyl)phenyl)thio)phenyl)amino)ethyl)-1-naphthamide]
IC50 (HTC-116): 4.6 µM
IC50 (RKO): 8 µM

IC50 (OVCAR8): 3400 nM
Compound: O=C(CNC(=O)c1cccc2ccccc12)Nc1ccccc1Sc1ccc(C(F)(F)F)cc1 [AOH1996S-4CF3, N-(2-oxo-2-((2-((4-(trifluoromethyl)phenyl)thio)phenyl)amino)ethyl)-1-naphthamide]
IC50 (HTC-116): 4.6 µM
IC50 (RKO): 10 µM

IC50 (OVCAR8): 291 nM
Compound: Cc1ccc(Sc2ccccc2NC(=O)CNC(=O)c2cccc3ccccc23)cc1 [AOH1996S-4CH3, N-(2-oxo-2-((2-(p-tolylthio)phenyl)amino)ethyl)-1-naphthamide]
IC50 (HTC-116): 0.345 µM
IC50 (RKO): 0.503 µM

Compound: Cc1ccc(Sc2ccccc2NC(=O)[C@H](CCC(=O)O)NC(=O)c2cccc3ccccc23)cc1 [AOH1996SLE-4CH3, (S)-4-(1-naphthamido)-5-oxo-5-((2-(p-tolylthio)phenyl)amino) pentanoic acid]
IC50 [1]: > 10 µM

Compound: COc1cccc(Oc2ccccc2NC(=O)CNC(=O)Cc2cccc3ccccc23)c1 [AOH1996eNph, N-(2-(3-methoxyphenoxy)phenyl)-2-(2-(naphthalen-1-yl)acetamido) acetamide]
IC50 [1]: > 10 µM

Compound: COc1cccc(Oc2ccccc2NC(=O)CNC(=O)CCc2cccc3ccccc23)c1 [AOH1996eeNph, N-(2-((2-(3-methoxyphenoxy)phenyl)amino)-2-oxoethyl)-3-(naphthalen-1-yl) propanamide]
IC50 [1]: > 10 µM

Compound: COc1cccc(Oc2ccccc2NC(=O)c2cccc3ccccc23)c1 [AOH1996t, N-(2-(3-methoxyphenoxy)phenyl)-1-naphthamide]
IC50 [1]: > 10 µM
